Measured values as given in US4263280A, “Synergistic mixtures” (priority 1978, dated 1981).
Structures can show the parent of a compound that is named as a salt.

Key:
[1] = system: Pseudomonas aeruginosa G 121; experiment: in vitro MIC, chessboard microdilution, Pseudomonas aeruginosa G 121; format: cell-based
Protocol: (§1) The combination substances A and B are diluted in DST broth OXOID in chessboard arrangement with the aid of microtitre system in 1:2 steps. All the concentrations of substance A are combined with all the concentrations of substance B and then inoculated with a standardised bacteria suspension (final concentration about 10^4 bacilli/ml). After incubation for 18 hours at 37° C., the inhibition of the bacterial growth is determined. The inhibiting concentrations are converted by the method of Kerry et al. (J. Antimicrob. […] By way of example, a number of the MIC values for the action of cefsulodin sodium, mecillinam, mezlocillin and gentamicin alone against a number of micro-organisms, as well as the MIC values for a number of mixtures in which synergism occurs, are reported in Table 1.

[2] = system: Staphylococcus aureus; experiment: in vitro MIC, chessboard microdilution, Staphylococcus aureus; format: cell-based
Protocol: as §1

[3] = system: Klebsiella pneumoniae 1; experiment: in vitro MIC, chessboard microdilution, Klebsiella pneumoniae 1; format: cell-based
Protocol: as §1

[4] = system: Proteus mirabilis 1077; experiment: in vitro MIC, chessboard microdilution, Proteus mirabilis 1077; format: cell-based
Protocol: as §1

[5] = system: Escherichia coli 205; experiment: systemic infection in mice, survival, Escherichia coli 205; format: in vivo; conditions: fifth day
Protocol: (§2) The combination substances A and B are diluted in 1:3 to 1:3.3 steps such that the average concentration contains the respective amount of substance A and substance B corresponding to the ED50.
(§3) Female MF 2 mice weighing 18 to 22 g are divided at random into groups (n=20) and infected intraperitoneally with a standardised bacteria suspension which, according to strain, represents 5 to >20 LD50.
(§4) Immediately after the infection, and 3 hours later, the mice are treated in groups subcutaneously with dilutions of substances A and B as well as with combinations thereof. These combinations are prepared shortly before administration by mixing each dilution of substance A with each dilution of substance B. The survival rates are determined on the fifth day after the infection. The survival rates of mice which are determined with each of substances A and B alone are compared with those obtained with the combinations of these substances. A combination which has protected more animals from death than would be expected from the independent action of the substances, is designated as having synergistic action.
(§5) The survival rates, expressed as percentages of surviving animals, found in infections with a number of pure micro-organisms and in polyinfections is reported in Table 2 for cefsulodin sodium, mecillinam, mezlocillin, gentamicin and CGP 14 221/E, as well as for corresponding mixtures.

[6] = system: Klebsiella pneumoniae 329; experiment: systemic infection in mice, survival, Klebsiella pneumoniae 329; format: in vivo; conditions: 300 mg/kg s.c., fifth day
Protocol: as §2, §3, §4, §5

[7] = known β-lactamase inhibitors themselves; cited from earlier work
[8] = system: Escherichia coli 205 RTEM^+; experiment: systemic infection in mice, survival, Escherichia coli 205 RTEM+; format: in vivo; conditions: 1.2 mg/kg s.c., fifth day
Protocol: as §2, §3, §4, §5

[9] = system: Klebsiella pneumoniae 327; experiment: systemic infection in mice, survival, Klebsiella pneumoniae 327; format: in vivo; conditions: fifth day
Protocol: as §2, §3, §4, §5

[10] = system: Klebsiella pneumoniae 329 + Escherichia coli 205; experiment: systemic polyinfection in mice, survival, Klebsiella pneumoniae 329 + Escherichia coli 205; format: in vivo; conditions: 20 mg/kg s.c., fifth day
Protocol: as §2, §3, §4, §5

CC1(C)S[C@@H]2[C@H](NC(=O)[C@H](NC(=O)N3CCN(S(C)(=O)=O)C3=O)c3ccccc3)C(=O)N2[C@H]1C(=O)O [Mezlocillin]
MIC ([1]; Pseudomonas aeruginosa, G121, alone, 18 hours, 37° C., read-out: MIC, antibiotic alone): 25 µg/mL
MIC, antibiotic B in combination with A ([1]; in combination with Cefsulodin-Na 0.04 mcg/ml): 12.5 µg/mL
MIC ([2]; Staphylococcus aureus, alone, 18 hours, 37° C., read-out: MIC, antibiotic alone): 3.2 µg/mL
MIC, antibiotic B in combination with A ([2]; in combination with Cefsulodin-Na 0.2 mcg/ml): 1.6 µg/mL
MIC ([3]; Klebsiella pneumoniae, 1, alone, 18 hours, 37° C., read-out: MIC, antibiotic alone): 1.25 µg/mL
MIC, antibiotic B in combination with A ([3]; in combination with Cefsulodin-Na 25 mcg/ml): 0.16 µg/mL
MIC ([4]; Proteus mirabilis, 1077, alone, 18 hours, 37° C., read-out: MIC, antibiotic alone): 1 µg/mL
MIC, antibiotic B in combination with A ([4]; in combination with Cefsulodin-Na 12.5 mcg/ml): 0.25 µg/mL
surviving animals, antibiotic alone ([5]; 50 mg/kg s.c.): 0%
surviving animals, antibiotic alone [6]: 0%

CC1(C)[C@H](C(=O)O)N2C(=O)C[C@H]2S1(=O)=O [penicillanic acid 4,4-dioxide]
antibiotic action [7]: insignificant antibiotic action

CN(C)CCn1nnnc1SCC1=C(C(=O)O)N2C(=O)[C@@H](NC(=O)Cc3csc(N)n3)[C@H]2SC1 [CGP 14221/E, 7[2(2-lmino-1,3-thiazolin-4-yl)acetamido3-[1(3-dimethylamino)-tetrazol-5-ylthio-methyl3-cephem-4-carboxylic acid hydrochloride]
surviving animals, antibiotic alone ([5]; 0.62 mg/kg s.c.): 0%
surviving animals, antibiotic alone ([5]; 2.5 mg/kg s.c.): 0%
surviving animals, antibiotic alone [8]: 10%
surviving animals, antibiotic alone ([9]; 20 mg/kg s.c.): 0%
surviving animals, antibiotic alone ([9]; 40 mg/kg s.c.): 0%
surviving animals, antibiotic alone [10]: 0%
